The results in this text go back to patent US20220089592A1, “IMIDAZO[1,2-A]PYRIDINYL DERIVATIVES AS IRAK4 INHIBITORS” (priority 2019, published 2022).

This experiment concerns the target T1, IRAK4 (Homo sapiens, UniProt Q9NWZ3).
T1 sequence (Q9NWZ3 1-460): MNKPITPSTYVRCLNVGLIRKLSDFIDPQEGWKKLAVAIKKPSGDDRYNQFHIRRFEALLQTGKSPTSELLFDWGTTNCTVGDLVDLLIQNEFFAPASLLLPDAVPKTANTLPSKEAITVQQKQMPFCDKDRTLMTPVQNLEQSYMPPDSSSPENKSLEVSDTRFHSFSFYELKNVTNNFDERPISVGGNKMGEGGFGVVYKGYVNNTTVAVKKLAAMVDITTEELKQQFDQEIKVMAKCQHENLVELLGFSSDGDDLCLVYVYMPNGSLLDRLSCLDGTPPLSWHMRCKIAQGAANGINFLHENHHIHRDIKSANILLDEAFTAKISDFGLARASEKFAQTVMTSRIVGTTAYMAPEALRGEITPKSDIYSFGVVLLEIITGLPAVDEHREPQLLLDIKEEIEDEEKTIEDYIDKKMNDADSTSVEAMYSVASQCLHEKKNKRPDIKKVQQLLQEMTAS
Put plainly: 2-hour 1 mM ATP IRAK4 Biochemical assay (as above, but with 100 pM IRAK4 and 1 mM ATP). The note with it: IRAK4 MSD BIOCHEMICAL (1 mM ATP) IC50 (μM), 100 pM IRAK4, 2 hours. Put shortly: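 Run with 100 pM IRAK4 and 1 mM ATP for 2 hours, quenched with EDTA pH 8. Phosphorylated biotinylated peptide captured on streptavidin MSD plates and detected with anti-phosphothreonine antibody plus Sulfo-Tag secondary by electrochemiluminescence.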
Broadly, the IC50 is the midpoint of a concentration-inhibition curve. Lower therefore signals greater potency in that assay. Consider `COc1c(Cl)c(NC(=O)c2cccc(C(F)F)n2)cn2cc(C3CCOCC3)nc12` [Example 331, N-(7-chloro-8-methoxy-2-(tetrahydro-2H-pyran-4-yl)imidazo[1,2-a]pyridin-6-yl)-6-(difluoromethyl)picolinamide], for which the IC50 was 0.031 µM.
As to `O=C(Nc1cn2cc(C3CCOCC3)nc2cn1)c1csc(C2CC2)n1` [Example 332, 2-cyclopropyl-N-(2-(tetrahydro-2H-pyran-4-yl)imidazo[1,2-a]pyrazin-6-yl)thiazole-4-carboxamide], the IC50 was 0.108 µM. Compared with the last compound, the IC50 is about 3.5-fold higher.
In turn, `COc1nc(NC(=O)c2coc(C(F)F)n2)cn2cc(C3CCOCC3)nc12` [Example 333, 2-(difluoromethyl)-N-(8-methoxy-2-(tetrahydro-2H-pyran-4-yl)imidazo[1,2-a]pyrazin-6-yl)oxazole-4-carboxamide] displayed an IC50 of 0.044 µM. This IC50 is about 2.5-fold lower than that of the compound before.
`COc1nc(NC(=O)c2cccc(C3CC3)n2)cn2cc(C3CCOCC3)nc12` [Example 334, 6-cyclopropyl-N-(8-methoxy-2-(tetrahydro-2H-pyran-4-yl)imidazo[1,2-a]pyrazin-6-yl)picolinamide] came in with an IC50 of 0.008 µM.
Compound `CCCOc1nc(NC(=O)c2ccccc2OC)cn2cc(C34COC(C)(C3)C4)nc12` [Example 335, 2-methoxy-N-(2-(1-methyl-2-oxabicyclo[2.1.1]hexan-4-yl)-8-propoxyimidazo[1,2-a]pyrazin-6-yl)benzamide] showed an IC50 of 0.011 µM. This IC50 and that of the compound before are within 1.5-fold of each other.
`CC(C)Oc1nc(NC(=O)c2cccc3ccnn23)cn2cc(C34COC(C)(C3)C4)nc12` [Example 336, N-(8-Isopropoxy-2-(1-methyl-2-oxabicyclo[2.1.1]hexan-4-yl)imidazo[1,2-a]pyrazin-6-yl)pyrazolo[1,5-a]pyridine-7-carboxamide] came in with an IC50 of 0.003 µM.
In the case of `COc1ncccc1C(=O)Nc1cn2cc(C34COC(C)(C3)C4)nc2c(OC(C)C)n1` [Example 337, N-(8-isopropoxy-2-(1-methyl-2-oxabicyclo[2.1.1]hexan-4-yl)imidazo[1,2-a]pyrazin-6-yl)-2-methoxynicotinamide], the IC50 turned out to be 0.006 µM.
In the case of `COc1cccn2ncc(C(=O)Nc3cn4cc(C56COC(C)(C5)C6)nc4c(OC(C)C)n3)c12` [Example 338, N-(8-isopropoxy-2-(1-methyl-2-oxabicyclo[2.1.1]hexan-4-yl)imidazo[1,2-a]pyrazin-6-yl)-4-methoxypyrazolo[1,5-a]pyridine-3-carboxamide], half-maximal inhibition (IC50) was put at 0.002 µM. This IC50 is about 3-fold lower than that of the compound before.
The result for `CC(C)Oc1nc(NC(=O)c2cccc(C(F)F)n2)cn2cc(C3CCOCC3)nc12` [Example 339, 6-(difluoromethyl)-N-(8-isopropoxy-2-(tetrahydro-2H-pyran-4-yl)imidazo[1,2-a]pyrazin-6-yl)picolinamide] reads 0.016 µM; that for `CC12CC(c3cn4cc(NC(=O)c5coc(C6CC6)n5)nc(OC5CCC5)c4n3)(CO1)C2` [Example 340, N-(8-cyclobutoxy-2-(1-methyl-2-oxabicyclo[2.1.1]hexan-4-yl)imidazo[1,2-a]pyrazin-6-yl)-2-cyclopropyloxazole-4-carboxamide], 0.006 µM.
As for `CC12CCC(c3cn4cc(NC(=O)c5coc(C6CC6)n5)nc(OC5CCC5)c4n3)(CO1)C2` (stereo not drawn) [Example 341, N-(8-cyclobutoxy-2-(1-methyl-2-oxabicyclo[2.2.1]heptan-4-yl)imidazo[1,2-a]pyrazin-6-yl)-2-cyclopropyloxazole-4-carboxamide], the IC50 was found to be 0.006 µM.
The result for `O=C(Nc1cn2cc(C3CCOCC3)nc2c(N2CCCC2)n1)c1cccc(C(F)F)n1` [Example 342, 6-(difluoromethyl)-N-(8-(pyrrolidin-1-yl)-2-(tetrahydro-2H-pyran-4-yl)imidazo[1,2-a]pyrazin-6-yl)picolinamide] reads 0.055 µM.
Compound `CCOc1nc2nc(C3CCOCC3)cn2cc1NC(=O)c1cccc2c1OCC2` [Example 343, N-(7-ethoxy-2-(tetrahydro-2H-pyran-4-yl)imidazo[1,2-a]pyrimidin-6-yl)-2,3-dihydrobenzofuran-7-carboxamide] yielded an IC50 of 0.004 µM.
The compound `CCOc1nc2nc(C34COC(C)(C3)C4)cn2cc1NC(=O)c1cccc(C(F)F)n1` [Example 344, 6-(difluoromethyl)-N-(7-ethoxy-2-(1-methyl-2-oxabicyclo[2.1.1]hexan-4-yl)imidazo[1,2-a]pyrimidin-6-yl)picolinamide] registered an IC50 of 0.001 µM.
Compound `COc1ncccc1C(=O)Nc1cn2cc(C34COC(C)(C3)C4)nc2nc1OC(C)C` [Example 346, N-(7-isopropoxy-2-(1-methyl-2-oxabicyclo[2.1.1]hexan-4-yl)imidazo[1,2-a]pyrimidin-6-yl)-2-methoxynicotinamide] registered a half-inhibitory concentration (IC50) of 0.001 µM.
`CC(C)Oc1nc2nc(C34COC(C)(C3)C4)cn2cc1NC(=O)c1cccc2ncnn12` [Example 348, N-(7-isopropoxy-2-(1-methyl-2-oxabicyclo[2.1.1]hexan-4-yl)imidazo[1,2-a]pyrimidin-6-yl)-[1,2,4]triazolo[1,5-a]pyridine-5-carboxamide] had a concentration for half-maximal inhibition (IC50) of 0.001 µM.
Consider `CC(C)Oc1nc2nc(C34COC(C)(C3)C4)cn2cc1NC(=O)c1cnn2cccc(F)c12` [Example 349, 4-fluoro-N-(7-isopropoxy-2-(1-methyl-2-oxabicyclo[2.1.1]hexan-4-yl)imidazo[1,2-a]pyrimidin-6-yl)pyrazolo[1,5-a]pyridine-3-carboxamide], for which the midpoint of inhibition, the IC50, lay at 0.001 µM.
Take `COc1ccccc1C(=O)Nc1cn2cc(C34COC(C)(C3)C4)nc2nc1OC1CC1` [Example 350, N-(7-cyclopropoxy-2-(1-methyl-2-oxabicyclo[2.1.1]hexan-4-yl)imidazo[1,2-a]pyrimidin-6-yl)-2-methoxybenzamide]: half-maximal inhibition (IC50) was put at 0.006 µM.
In the case of `COc1cc(NC(=O)c2cccc(C(F)F)n2)cn2c(F)c(C3CCOCC3)nc12` [Example 351, 6-(difluoromethyl)-N-(3-fluoro-8-methoxy-2-(tetrahydro-2H-pyran-4-yl)imidazo[1,2-a]pyridin-6-yl)picolinamide], the IC50 is 0.1 µM. Against the preceding compound, the IC50 is about 17-fold higher.
In turn, `CC(C)Oc1cc2nc(C3CCOCC3)c(F)n2cc1NC(=O)c1cccc(C(F)F)n1` [Example 352, 6-(difluoromethyl)-N-(3-fluoro-7-isopropoxy-2-(tetrahydro-2H-pyran-4-yl)imidazo[1,2-a]pyridin-6-yl)picolinamide] displayed an IC50 of 0.001 µM.
Compound `CC(C)Oc1cc2nc(C3CCOCC3)c(Cl)n2cc1NC(=O)c1cccc(C(F)F)n1` [Example 353, N-(3-chloro-7-isopropoxy-2-(tetrahydro-2H-pyran-4-yl)imidazo[1,2-a]pyridin-6-yl)-6-(difluoromethyl)picolinamide] came in with an IC50 of 0.011 µM.
`CCOc1cc2nc(C(C)(C)O)c(Cl)n2cc1NC(=O)c1cccc(C(F)F)n1` [Example 354, N-(3-chloro-7-ethoxy-2-(2-hydroxypropan-2-yl)imidazo[1,2-a]pyridin-6-yl)-6-(difluoromethyl)picolinamide] had an IC50 of 0.438 µM.
The result for `CC12CC(c3cn4cc(NC(=O)c5cccc(C(F)F)n5)ccc4n3)(CO1)C2` [Example 357, 6-(difluoromethyl)-N-(2-(1-methyl-2-oxabicyclo[2.1.1]hexan-4-yl)imidazo[1,2-a]pyridin-6-yl)picolinamide] reads 0.03 µM.
The result for `CCOc1cc2nc(C3CCOCC3)cn2cc1NC(=O)c1cccc(C2CCOC2)n1` (stereo not drawn) [Example 367, N-(7-ethoxy-2-(tetrahydro-2H-pyran-4-yl)imidazo[1,2-a]pyridin-6-yl)-6-(tetrahydrofuran-3-yl)picolinamide] reads 0.011 µM.
